Broadly, the IC50 is the concentration that inhibits the measured activity by half.

The values that follow come from article PMC8467576, “Novel Ubiquitin Specific Protease-13 Inhibitors Alleviate Neurodegenerative Pathology” (Metabolites, 2021).

Series [1] relates to SH-SY5Y human neuroblastoma cells. Put plainly: LDH and MTT cell viability assays. The note with it: 5 h; for concentration near and above which cell viability decreased: compared to DMSO or untreated controls; for cell toxicity: range of concentrations studied (0.001 µM to 1 mM). It counts as cell-based. On the procedure: BK50118-B and BK50118-C (Figure 2C,D) decreased cell viability near and above 100 μM compared to DMSO or untreated controls. CL3-499 (Figure 2G) decreased cell viability near and above 1 mM compared to DMSO or untreated controls.
(§1) SH-SY5Y cells were transiently transfected for 24 h with human wild-type α-synuclein using Fugene HD transfection reagent (Promega, E2311, Madison, WI, USA) according to manufacturer’s protocol. Cells were treated with 1 mM, 0.1 mM, 0.01 mM, 1 µM, 0.1 µM, 0.01 µM and 0.001 µM of each novel compounds (BK50118-A, BK50118-B, BK50118-C, CL3-499, CL3-512 and CL3-514) dissolved in DMSO for 5 h. Cells were then harvested on ice by removing culture medium and adding 0.2 mL 1x sodium-tris, EDTA, NP-40 (STEN) buffer (50 mM Tris (pH 7.6), 150 mM NaCl, 2 mM EDTA, 0.2 % NP-40, 0.2 % with Halt protease and phosphatase inhibitor solution (ThermoFisher, 78446). Cells were detached with a cell scraper and collected into centrifuge tubes and incubated at 4 °C for 30 min with agitation. Samples were stored at −80 °C and used for ELISA analyses. For cell viability assay, SHSY-5Y cells stably expressing human wild-type alpha-synuclein were treated with 1 mM, 0.1 mM, 0.01 mM, 1 µM, 0.1 µM, 0.01 µM and 0.001 µM of each novel compound (BK50118-A, BK50118-B, BK50118-C, CL3-499, CL3-512 and CL3-514) dissolved in DMSO for 5 h. Cell viability was determined via lactate dehydrogenase assay on culture media (Thermofisher, 88954) and MTT assay on plated cells (Thermofisher, V13154).
Background: Tetrazolium assays rely on reduction of a dye to a coloured formazan, in cell work by metabolically active cells.

The target of series [2] is T1, USP13 (Homo sapiens, UniProt Q92995).
T1 construct: ELISA for USP13 (MyBioSource, Cat # MBS9335287, San Diego, CA, USA); endogenous in cells; host or cells: human SH-SY5Y neuroblastoma cells transfected with human wild-type alpha-synuclein
T1 sequence (Q92995 1-863): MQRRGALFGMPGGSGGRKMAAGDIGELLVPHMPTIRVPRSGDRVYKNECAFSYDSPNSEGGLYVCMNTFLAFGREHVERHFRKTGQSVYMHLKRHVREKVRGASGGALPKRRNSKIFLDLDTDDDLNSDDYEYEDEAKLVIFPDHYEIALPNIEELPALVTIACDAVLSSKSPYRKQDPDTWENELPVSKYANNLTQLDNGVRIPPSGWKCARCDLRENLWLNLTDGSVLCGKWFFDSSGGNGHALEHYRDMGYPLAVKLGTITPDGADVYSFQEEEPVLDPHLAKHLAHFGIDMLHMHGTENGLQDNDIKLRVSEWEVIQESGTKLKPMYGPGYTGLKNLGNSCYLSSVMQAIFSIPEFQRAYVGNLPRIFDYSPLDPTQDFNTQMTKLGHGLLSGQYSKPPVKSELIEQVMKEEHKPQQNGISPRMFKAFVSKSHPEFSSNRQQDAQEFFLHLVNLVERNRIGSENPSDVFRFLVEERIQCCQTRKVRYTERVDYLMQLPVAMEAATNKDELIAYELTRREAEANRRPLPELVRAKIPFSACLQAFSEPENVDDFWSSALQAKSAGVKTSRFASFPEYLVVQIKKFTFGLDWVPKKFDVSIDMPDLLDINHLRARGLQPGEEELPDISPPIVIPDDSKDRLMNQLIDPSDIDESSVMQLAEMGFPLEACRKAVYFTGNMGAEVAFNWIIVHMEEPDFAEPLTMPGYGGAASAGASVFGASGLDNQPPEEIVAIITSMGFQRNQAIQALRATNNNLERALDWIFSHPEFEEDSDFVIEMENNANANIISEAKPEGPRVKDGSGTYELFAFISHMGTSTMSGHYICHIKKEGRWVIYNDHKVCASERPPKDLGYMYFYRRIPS
Put plainly: USP13 activity via functional ELISA in alpha-synuclein transfected SH-SY5Y cells. It counts as cell-based. The conditions noted are these: SH-SY5Y cells transfected with human alpha-synuclein, 5 h, read-out: Estimated IC50 to USP13. As to the method: Stably transfected human neuroblastoma SH-SY5Y cells with human wild-type alpha-synuclein were treated with 1 mM, 100 µM, 10 µM, 1 µM, 0.1 µM, 0.01 µM and 0.001 µM of each of BK50118-A, BK50118-B, BK50118-C, CL3-499, CL3-512 and CL3-514 dissolved in an equivalent volume of DMSO for 5 h. […] The other 5 compounds were also able to lower alpha-synuclein levels but with less potency (Figure 3H,I,K–M).
as §1
The ELISA for USP13 (MyBioSource, Cat # MBS9335287, San Diego, CA, USA), Human alpha-synuclein (Biolegend, Cat # 844101, San Diego, CA, USA) and specific p-Tau ser396 (Invitrogen, KHB7031, Waltham, MA, USA) were performed on cell or brain tissue extracts as described above according to manufacturers’ protocol.
All statistical analyses were performed using GraphPad Prism version 5.0 (GraphPad software, Inc, San Diego, CA, USA). Two-tailed student’s t-test was used in comparison of means of two groups. Ordinary one-way analysis of variance (ANOVA) followed by Newman–Keuls or Dunnett comparison post hoc tests were used in comparison of means of multiple groups. Asterisks denote actual p-value significances (* < 0.05, ** < 0.01, *** < 0.001 and **** < 0.0001), and N is the number of animals or the number of independent experiments (cell culture) per group. Unless otherwise indicated, data are expressed as Mean ± SD. IC50 to USP13 levels was also estimated using GraphPad Prism version 5.0 (GraphPad software, Inc, San Diego, CA, USA).

For series [3], the system named is USP10. Further details: method as in PMID 21962518. The note with it: cited from earlier work.
Details of series [4]: method as in PMID 21962518. The conditions noted are these: cited from earlier work.
Series [5] relates to USP13. Further details: method as in PMID 21962518. The conditions noted are these: cited from earlier work.

Regarding `c1ccc(Nc2ccnc3ccsc23)cc1` [BK50118-A, N-phenylthieno[3,2-b]pyridin-7-amine], in series [1], the “concentration near and above which cell viability decreased” value was at least 0.1 µM. Also, the IC50 in series [2] was 0.11 nM.
For `Fc1ccc2nccc(Nc3ccccc3)c2c1` [BK50118-B, 6-fluoro-N-phenylquinolin-4-amine], in that order: at least 100 µM and 2.13 nM.
With `Fc1ccc2nccc(NCc3ccccc3)c2c1` [CL3-499, N-benzyl-6-fluoroquinolin-4-amine], the “concentration near and above which cell viability decreased” value in series [1] was at least 1000 µM. In series [2], the IC50 was 0.29 nM.
Consider `COC(=O)[C@H](Cc1ccccc1)Nc1c([N+](=O)[O-])c(=O)oc2ccccc12` [CL3-512, (S)-methyl (3-nitro-2-oxo-2H-chromen-4-yl)-phenylalaninate], for which the cell toxicity result in series [1] was “did not show cell toxicity”. Moreover, the IC50 in series [2] is 0.27 nM.
In the case of `COC(=O)[C@H](Cc1ccc(O)cc1)Nc1c([N+](=O)[O-])c(=O)oc2ccccc12` [CL3-514, (S)-methyl (3-nitro-2-oxo-2H-chromen-4-yl)-tyrosinate], the cell toxicity entry in series [1] was “did not show cell toxicity”. The IC50 in series [2] was 0.61 nM.
Regarding `Fc1ccc(CNc2ncnc3ccc(F)cc23)cc1` [Spautin-1], the IC50 in series [3] and in series [5] was 600 to 700 nM in each case. In series [4], the “blood-brain barrier (BBB) penetration” value was “does not cross the blood–brain barrier (BBB)”.
